Measurements as given in patent publication USRE30354E, “Novel ethereally monosubstituted monosaccharides” (Strategic Medical Research Corp., priority 1978, dated 1980).
In brackets after ≈: the same amount, converted by molar mass.

What was measured:
[1] = light sensitivity; format: physicochemical
[2] = system: herpes simplex virus; assay: inhibition of herpes simplex virus multiplication in tissue culture (plaque formation technic of Rapp); format: cell-based; conditions: for IC50: read-out: Concentration required to exert 50% inhibition of herpes-induced plaque formation; for IC100: read-out: Concentration required to exert 100% inhibition of herpes-induced plaque formation
[3] = system: influenza A/PR/8; assay: prevention of death in mice with lethal influenza A/PR/8 infection; format: in vivo; conditions: for % of Population Protected / % Mortality: 8 days; for % Mortality: control 95
Method: The above medication was also examined for its capacity to prevent death in mice ill with a lethal influenza A/PR/8 infection. The drug was given subcutaneously at 3 dose levels, once 90 minutes before infection.

[4] = system: influenza A2 /Hong Kong; assay: suppression of influenza A2/Hong Kong disease in mice (lung weight); format: in vivo; conditions: 40 mg/Kg orally from 24 h post-infection; 8 days; from lung weights; 50% of drug blocked at 1,2- with acetone
[5] = system: influenza A2 virus, Hong Kong strain; assay: microbe, parasite or virus in culture; format: cell-based
[6] = 10 mg/Kg s.c. once 90 min before infection
[7] = 40 mg/Kg s.c. once 90 min before infection
[8] = 160 mg/Kg s.c. once 90 min before infection

Compound | IC50 [2] [µg/mL] | IC100 [2] [µg/mL] | also measured
3-O-D-glucopropionitrile | – | – | light sensitivity [1]: photosensitive
CCN(CC)CCOC1C(C2COC(C)(C)O2)OC2OC(C)(C)OC21 [1,2:5,6-di-O-isopropylidene-3-O-2'-(N',N'-diethylaminoethyl)-D-glucofuranose] | 6 (≈ 16.7 µM) | 30 | –
CCN(CC)CCO[C@H]1[C@H](O)[C@@H](CO)OC(O)[C@@H]1O (stereo partly drawn) [3-O-2'-(N',N'-diethylaminoethyl)-D-glucopyranose] | 2 (≈ 7.16 µM) | 20 | –
CC(CN(C)C)O[C@H]1[C@H](O)[C@@H](CO)OC(O)[C@@H]1O (stereo partly drawn) [3-O-2'-(N',N'-dimethylaminopropyl)-D-glucopyranose] | – | – | Concentration required to exert 50% inhibition of herpes-induced plaque formation ([2]; herpes simplex, tissue culture): 3 µg/mL; Concentration required to exert 100% inhibition of herpes-induced plaque formation ([2]; herpes simplex, tissue culture): < 20 µg/mL
CC(CO[C@H]1[C@H](O)[C@@H](CO)OC(O)[C@@H]1O)CN(C)C (stereo partly drawn) [3-O-3'-(2',N',N'-trimethylamino-n-propyl)-D-glucopyranose] | 2 (≈ 7.16 µM) | 7 | –
CN(C)CCCO[C@H]1[C@H](O)[C@@H](CO)OC(O)[C@@H]1O (stereo partly drawn) [3-O-3'-(N',N'-dimethylamino-n-propyl)-D-glucopyranose] | 0.3 (≈ 1.13 µM) | 1 | % of Population Protected [3, 6]: 14%; % Mortality [3, 6]: 81%; % of Population Protected [3, 7]: 23%; % Mortality [3, 7]: 72%; % of Population Protected [3, 8]: 50%; % Mortality [3, 8]: 45%; protection against death ([3]; 3 s.c. dose levels, once 90 minutes before infection): significant dose-dependent protection against death; % Disease Suppression [4]: 82%; anti-herpes potency ([2]; relative to other derivatives of Table 2): the most potent derivative; potency of virus-inhibiting effect [5]: the most potent effect
NCCCO[C@H]1[C@H](O)[C@@H](CO)OC(O)[C@@H]1O (stereo partly drawn) [3-O-3'-n-propylamino-D-glucose, 3-O-3'-(n-propylamino)-D-glucopyranose] | 3 (≈ 12.6 µM) | > 20 | –
CN1CCC(O[C@H]2[C@H](O)[C@@H](CO)OC(O)[C@@H]2O)CC1 (stereo partly drawn) [3-O-4'-(N-methylpiperidyl)-D-glucose, 3-O-4'-(N-methylpiperidyl)-D-glucopyranose] | 0.7 (≈ 2.52 µM) | 6 | –
CN(C)CCCOC[C@H]1OC(O)[C@H](O)[C@@H](O)[C@H]1O (stereo partly drawn) [6-O-3'-(N',N'-dimethylamino-n-propyl)-D-galactopyranose] | 2 (≈ 7.54 µM) | > 10 | –
CC1(C)OCC(C2OC3OC(C)(C)OC3C2OCCC#N)O1 [di-O-isopropylidene-3-O-3'-propionitrile-D-glucofuranose] | – | – | light sensitivity [1]: light sensitive
CC(CN(C)C)O[C@H]1O[C@H](CO)[C@@H](O)[C@H](O)[C@H]1O (stereo partly drawn) [α-N,N-dimethylaminoisopropyl glucoside, α-N,N-dimethylaminoisopropyl-D-glucoside] | 10 (≈ 37.7 µM) | > 50 | log reduction at 3 µg/mL ([5]; 3 μg/ml, 100 TCD50 inoculum, BHK cells, 4.0 is maximum, read-out: Log Decrease in Infectivity of Virus Inoculum): 1.5; log reduction at 10 µg/mL ([5]; 10 μg/ml, 100 TCD50 inoculum, BHK cells, 4.0 is maximum (complete suppression), read-out: Log Decrease in Infectivity of Virus Inoculum): 2.5
